Earlier results in patent US7202251B2, “Bicyclic anilide spirohydantoin CGRP receptor antagonists” (Merck & Co., Inc., priority 2003, dated 2007).
Ends that are not written are not given here.

How the values were obtained:
facial blood flow [1] = conditions: marmoset, electrical stimulation of the trigeminal ganglion
facial blood flow [2] = conditions: rat, trigeminal ganglion stimulation
[3] = test system: middle meningeal artery diameter; conditions: rats, electrical stimulation of the dura mater, prior administration

Row | Molecule | effect on increase in facial blood flow (facial blood flow [1]) | effect on increased facial blood flow (facial blood flow [2]) | effect on increase of middle meningeal artery diameter [3]
1 | NCCCC[C@H](NC(=O)[C@@H](Cc1cc(Br)c(O)c(Br)c1)NC(=O)N1CCC(N2Cc3ccccc3NC2=O)CC1)C(=O)N1CCN(c2ccncc2)CC1 [BIBN4096BS] | blocked | – | –
2 | CGRP(8-37): a peptide CGRP antagonist (VTHRLAGLLSRSGGVVKNNFVPTNVGSKAF; ends and bridges not checked; UniProt P06881 90-119, looked up, fragment) | – | inhibited | blocked
